# Experimental data taken from patent US20030083241A1, “Use of somatostatin receptor agonists in the treatment of human disorders of sleep hypoxia and oxygen deprivation” (priority 2001, published 2003).
# What was measured:
# [1] = test system: TNF-alpha, Interleukin-1 beta and Interleukin-6; conditions: cited from earlier work
# GHRH hormone secretion = conditions: in vivo; cited from earlier work
# GERD symptoms = assay: Clinical observation of GERD symptoms in a terminal cancer patient given octreotide; format: in vivo, human
# Method: Development of the present invention was stimulated by an event in Applicant's clinical practice of oncology. Octretotide was added to the treatment program of a patient with terminal cancer because the patient's cancer concentrated radiolabelled octreotide on a nuclear medicine scan. Treatment was initiated with subcutaneous octreotide at a dose of 150 microgram twice daily, then three times daily, and then finally the patient was shifted to a longer-acting depot formulation of octreotide (Sandostatin LAR) that was given intramuscularly on a monthly basis.
# obstructive sleep apnea = conditions: octreotide given as therapy for the endocrine disorder; cited from earlier work
structure (smiles),measurement,setting,value
"C[C@@H](O)[C@@H]1NC(=O)[C@H](CCCCN)NC(=O)[C@@H](Cc2c[nH]c3ccccc23)NC(=O)[C@H](Cc2ccccc2)NC(=O)[C@@H](NC(=O)[C@H](N)Cc2ccccc2)CSSC[C@@H](C(=O)N[C@H](CO)[C@@H](C)O)NC1=O [octreotide, octreotide acetate]","secretion of TNF-alpha, Interleukin-1 beta and Interleukin-6",[1],inhibit
same,GHRH hormone secretion,GHRH hormone secretion,inhibited
same,GERD symptoms after initiation of octreotide administration,"GERD symptoms; one patient with terminal cancer, subcutaneous 150 microgram twice, then three times daily, then monthly IM Sandostatin LAR, symptoms present for many years",rapid and complete disappearance of GERD symptoms
same,duration of control of GERD symptomatology,"GERD symptoms; same patient, until death from a complication of the cancer unrelated to therapy",maintained for several months
same,obstructive sleep apnea in patients with acromegaly,obstructive sleep apnea,ameliorated in many patients
